Data published in article PMC11410929, “Biochemical and crystallographic studies of L,D-transpeptidase 2 from Mycobacterium tuberculosis with its natural monomer substrate” (Communications Biology, 2024).
Read-outs that look alike come from different tables or passages of the source. *1 amine or outer side, *2 acyl side, *3 side chain or, on linkers, in order; H or OH if unused. Where a SMILES comes first, the peptide text is derived from it. [ ]: non-standard residue; d: D form. d(γGlu) = O=C(O)[C@@H](CCC(=O)[*:2])N[*:1]

Columns and labels:
LdtMt2 [1] = biological target: T1, LdtMt2 (Mycobacterium tuberculosis, UniProt I6Y9J2); experiment: biochemical; format: binding; settings: for ΔTm at 500 µM: pH 7.5, read-out: Shift in melting temperature compared to unmodified LdtMt2, 500 µM; for ΔTm at 1000 µM: pH 7.5, read-out: Shift in melting temperature compared to unmodified LdtMt2, 1 mM; for Shift in melting temperature compared to unmodified LdtMt2, 500 µM / Shift in melting temperature compared to unmodified LdtMt2, 1 mM / Tm 500 µM / Tm 1 mM: pH 7.5
T1 sequence (I6Y9J2 56-408): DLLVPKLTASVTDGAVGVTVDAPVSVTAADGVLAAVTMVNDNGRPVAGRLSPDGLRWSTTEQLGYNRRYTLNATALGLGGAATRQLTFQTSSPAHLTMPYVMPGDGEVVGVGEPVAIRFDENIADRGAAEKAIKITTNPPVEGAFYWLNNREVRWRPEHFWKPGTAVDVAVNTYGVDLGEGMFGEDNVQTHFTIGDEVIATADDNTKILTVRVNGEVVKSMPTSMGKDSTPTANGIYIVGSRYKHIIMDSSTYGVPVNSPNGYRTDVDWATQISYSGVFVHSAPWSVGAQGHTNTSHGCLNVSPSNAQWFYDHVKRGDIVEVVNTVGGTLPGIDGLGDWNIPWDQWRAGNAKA
Method: Differential scanning fluorometric thermal shift assays[32]
LdtMt2 (5 µM) was incubated with peptidoglycan fragments (500 µM or 1 mM) in buffer (50 mM tris pH 7.5) for 30 minutes at room temperature, after which time SYPRO Orange (final concentration 6x, according to manufacturer’s definition, Invitrogen) was added. Melting temperatures […]
See Methods for experimental details.
Table S1. […] The melting

LdtMt2 [2] = biological target: T1, LdtMt2; experiment: biochemical; format: biochemical
LdtMt2 [3] = biological target: T1, LdtMt2; settings: thiol-reactive fluorescent probe assay; quadruplicate; ref 6,7 (supplement); cited from earlier work
DAAO and HRP = experiment: Transpeptidase interference assay (no LdtMt2, D-Ala as substrate); format: biochemical; settings: for Transpeptidase interference assay pIC50 (mean ± SD): DAAO 2 U/mL, HRP 2 U/mL, FAD 40 µM, Amplex red 10 µM, 30 min rt, then D-alanine 500 nM, pH 8.0, quadruplicate
Method: The transpeptidase interference assay was performed as described above, with the modification that the LdtMt2 mixture was replaced by 5 µL assay buffer, and the substrate was replaced by D-Ala (500 nM final concentration). Data were analysed using Prism 10 (GraphPad).
Figure S14. Dose-response curves of the transpeptidase interference assay with compounds
14-24. The specified inhibitors were incubated with DAAO (2 U/mL), HRP (2 U/mL), FAD (40 μM) and
Amplex red (10 μM) in 50 mM sodium phosphate pH 8.0 with 100 mM NaCl at room temperature for 30
minutes, after which time D-alanine (500 nM) was added. The pIC50 values and compound structures
See Methods for experimental details. Individual data points are shown.

LdtMt2 [4] = biological target: T1, LdtMt2; settings: pH 7.5
LdtMt2 [5] = biological target: T1, LdtMt2; settings: pH 8
LdtMt2 [6] = biological target: T1, LdtMt2; format: biochemical; settings: pH 7.5
LdtMt2 [7] = biological target: T1, LdtMt2; settings: cited from earlier work
[8] = LdtMt2 500 nM, 30 min preincubation rt, substrate 1 35 µM, pH 8.0, 37 °C, n=3, read-out: pIC50, LdtMt2 inhibition by non-substrate peptidoglycan fragments (converted)

With `C[C@H](N)C(=O)N[C@H](CCC(=O)N[C@@H](CCCCN)C(=O)N[C@H](C)C(=O)N[C@H](C)C(=O)O)C(=O)O` [Compound 8, L-Ala-D-iGlu-L-Lys-D-Ala-D-Ala, reference compound] the ΔTm at 500 µM (LdtMt2 [1]) was 1.5 °C, the ΔTm at 1000 µM (LdtMt2 [1]) was 2 °C and the IC50 (LdtMt2 [2]; [8]) was 15.8 µM.

`C[C@H](N)C(=O)N[C@H](CCC(=O)N[C@@H](CCCCN)C(=O)N[C@H](C)C(=O)O)C(=O)O` [Compound 10, L-Ala-D-iGlu-L-Lys-D-Ala, reference compound] (H-A[d(γGlu)]K[dA]-OH) gave a ΔTm at 500 µM (LdtMt2 [1]) of 1.5 °C, a ΔTm at 1000 µM (LdtMt2 [1]) of 3 °C and an IC50 (LdtMt2 [2]; [8]) of 15.8 µM.

With `C[C@H](N)C(=O)N[C@H](CCC(=O)N[C@@H](CCC[C@@H](N)C(=O)O)C(=O)O)C(=O)O` [Compound 12, reference compound] the ΔTm at 500 µM (LdtMt2 [1]) was 0.5 °C and the ΔTm at 1000 µM (LdtMt2 [1]) was 1 °C.

With `N[C@H](CCC[C@H](NC(=O)CC[C@@H](N)C(=O)O)C(=O)O)C(=O)O` [Compound 13, D-γ-Glu-m-DAP, reference compound] the ΔTm at 500 µM (LdtMt2 [1]) was 1 °C and the ΔTm at 1000 µM (LdtMt2 [1]) was 1.5 °C.

For `C[C@@H](O)[C@H]1C(=O)N2C(C(=O)O)=C(S[C@@H]3CN[C@H](C(=O)N(C)C)C3)[C@H](C)[C@H]12` [Compound 14, Meropenem], the “Fluorogenic probe assay pIC50 (mean ± SD)” value (LdtMt2 [3]) is given as 5.9 ± 0.04, the “Transpeptidase interference assay pIC50 (mean ± SD)” value (DAAO and HRP) is given as less than 4.0 and the IC50 (LdtMt2 [2]; LdtMt2 500 nM, 30 min preincubation rt, substrate 1 35 µM, 50 mM sodium phosphate pH 8.0, 100 mM NaCl, 37 °C, quadruplicate, read-out: Transpeptidase activity assay pIC50 (mean ± SD) (converted)) is given as 0.631 µM.

With `C[C@@H](O)[C@H]1C(=O)N2C(C(=O)O)=C([C@H]3CCCO3)S[C@H]12` [Compound 15, Faropenem] the “Transpeptidase interference assay pIC50 (mean ± SD)” value (DAAO and HRP) was less than 4.0.

In the case of `O=c1c2ccccc2[se]n1-c1ccccc1` [Compound 24, Ebselen], the “Fluorogenic probe assay pIC50 (mean ± SD)” value (LdtMt2 [3]) is listed as 6.7 ± 0.04, the “Transpeptidase interference assay pIC50 (mean ± SD)” value (DAAO and HRP) is listed as 5.0 ± 0.4 and the “Interference with the DAAO/HRP assay” value (DAAO and HRP; inhibition of DAAO and HRP, in words) is listed as “cause interference”. For the same molecule, the “Transpeptidase activity assay pIC50 (mean ± SD)” value (LdtMt2 [2]; LdtMt2 500 nM, 30 min preincubation rt, substrate 1 35 µM, 50 mM sodium phosphate pH 8.0, 100 mM NaCl, 37 °C, quadruplicate) was 6.8 ± 0.2.

In the case of “GlcNAc-MurNAc-L-Ala-D-iGluNH2-m-DAPNH2-D-Ala [Compound 1]”, the “Covalent adducts of LdtMt2 (SPE-MS)” value (LdtMt2 [4]) is reported as “no covalent adducts of LdtMt2 were observed”, the Reaction rate (LdtMt2 [5]) is reported as 120.0 ± 1.7 RFU min^−1 and the Vmax (LdtMt2 [5]) is reported as “Ambiguous”. The “Shift in melting temperature compared to unmodified LdtMt2, 500 µM” value (LdtMt2 [1]) was “+1.5 °C”, the “Shift in melting temperature compared to unmodified LdtMt2, 1 mM” value (“Shift in melting temperature … 1 mM” below) (LdtMt2 [1]) was “+2.0 °C” and the “Tm 500 µM” value (LdtMt2 [1]) was 45 °C. For the same molecule, the “Tm 1 mM” value (LdtMt2 [1]) was 45.5 °C and the “LdtMt2 turnover / transpeptidase product formation (LC-MS)” value (LdtMt2 [6]) was “led to formation of products”.

In the case of “GlcNAc-MurNAc-L-Ala-D-iGluNH2-m-DAPNH2-D-Ala-D-Ala [Compound 4]”, the “Shift in melting temperature … 1 mM” value (LdtMt2 [1]) is reported as “+2.5 °C”, the “Tm 500 µM” value (LdtMt2 [1]) is reported as 45.5 °C and the “Tm 1 mM” value (LdtMt2 [1]) is reported as 46 °C. The “LdtMt2 inhibition by non-substrate peptidoglycan fragments, in words” value (LdtMt2 [2]; pH 8) was “modest LdtMt2 inhibition” and the “LdtMt2 turnover / transpeptidase product formation (LC-MS)” value (LdtMt2 [6]) was “did not manifest evidence for reaction”.

With “GlcNAc-Muramitol-L-Ala-D-iGluNH2-m-DAPNH2-D-Ala [Compound 2]” the “LdtMt2 turnover / transpeptidase product formation (LC-MS)” value (LdtMt2 [6]) was “led to formation of products”.

In the case of “GlcNAc-muramitol-L-Ala-D-iGluNH2-m-DAPNH2-D-Ala-D-Ala [reduced pentapeptide monomer of Mtb]”, the “LdtMt2 substrate or not” value (LdtMt2 [7]) is listed as “is not an LdtMt2 substrate”.

For “L-Ala-D-iGluNH2-L-Lys-D-Ala [Compound 11]”, the “LdtMt2 turnover / transpeptidase product formation (LC-MS)” value (LdtMt2 [6]) was “is not a substrate for LdtMt2”.

With “lactoyl-L-Ala-D-iGluNH2-m-DAPNH2-D-Ala [Compound 3]” the “Covalent adducts of LdtMt2 (SPE-MS)” value (LdtMt2 [4]) was “no covalent adducts of LdtMt2 were observed”, the Km (LdtMt2 [5]) was 6.2 mM and the Reaction rate (LdtMt2 [5]) was 224.2 ± 2.6 RFU min^−1. The Vmax (LdtMt2 [5]) was 1.4 ± 0.5, the kcat (LdtMt2 [5]) was 2.6 ± 0.9 and the kcat/KM (LdtMt2 [5]) was 0.07 M⁻¹ s⁻¹. For the same molecule, the kcat/Km (LdtMt2 [5]) was 0.07 M⁻¹ s⁻¹, the “Shift in melting temperature compared to unmodified LdtMt2, 500 µM” value (LdtMt2 [1]) was “+1.5 °C” and the “Shift in melting temperature … 1 mM” value (LdtMt2 [1]) was “+2.0 °C”. The “Tm 500 µM” value (LdtMt2 [1]) was 45 °C, the “Tm 1 mM” value (LdtMt2 [1]) was 45.5 °C and the “LdtMt2 turnover / transpeptidase product formation (LC-MS)” value (LdtMt2 [6]) was “led to formation of products”.
